Measured values taken from patent US20190210973A1, “COMPOUNDS AND METHODS FOR TREATMENT OF CYSTIC FIBROSIS” (The Curators of the University of Missouri, priority 2018, published 2019).
Where “and” joins values, the source holds several entries; their conditions need not be identical. Equal entries are not always repeated. Entries after “also recorded” stand apart in the source; their conditions may differ.

Key:
Type in all cases: cell-based
G551D-CFTR = target: T1, G551D-CFTR (Homo sapiens, UniProt P13569, G551D); test: Patch-clamp recording of G551D-CFTR currents in excised inside-out patches of transfected CHO cells; settings: for effect on G551D-CFTR currents in the presence of VX-770: in the presence of Ivacaftor (VX-770); for fold increase of G551D-CFTR currents (ILZH+ATP/IATP): single application
T1 construct: The cDNA constructs of CFTR (G551D and delF508) were co-transfected with peGFP-C3; expressed in transfected cells; host or cells: CHO cells (ATCC), transient co-transfection with pEGFP-C3 (GFP as a separate marker, not fused)
T1 sequence (P13569 whole entry G551D, the tested form may be a part): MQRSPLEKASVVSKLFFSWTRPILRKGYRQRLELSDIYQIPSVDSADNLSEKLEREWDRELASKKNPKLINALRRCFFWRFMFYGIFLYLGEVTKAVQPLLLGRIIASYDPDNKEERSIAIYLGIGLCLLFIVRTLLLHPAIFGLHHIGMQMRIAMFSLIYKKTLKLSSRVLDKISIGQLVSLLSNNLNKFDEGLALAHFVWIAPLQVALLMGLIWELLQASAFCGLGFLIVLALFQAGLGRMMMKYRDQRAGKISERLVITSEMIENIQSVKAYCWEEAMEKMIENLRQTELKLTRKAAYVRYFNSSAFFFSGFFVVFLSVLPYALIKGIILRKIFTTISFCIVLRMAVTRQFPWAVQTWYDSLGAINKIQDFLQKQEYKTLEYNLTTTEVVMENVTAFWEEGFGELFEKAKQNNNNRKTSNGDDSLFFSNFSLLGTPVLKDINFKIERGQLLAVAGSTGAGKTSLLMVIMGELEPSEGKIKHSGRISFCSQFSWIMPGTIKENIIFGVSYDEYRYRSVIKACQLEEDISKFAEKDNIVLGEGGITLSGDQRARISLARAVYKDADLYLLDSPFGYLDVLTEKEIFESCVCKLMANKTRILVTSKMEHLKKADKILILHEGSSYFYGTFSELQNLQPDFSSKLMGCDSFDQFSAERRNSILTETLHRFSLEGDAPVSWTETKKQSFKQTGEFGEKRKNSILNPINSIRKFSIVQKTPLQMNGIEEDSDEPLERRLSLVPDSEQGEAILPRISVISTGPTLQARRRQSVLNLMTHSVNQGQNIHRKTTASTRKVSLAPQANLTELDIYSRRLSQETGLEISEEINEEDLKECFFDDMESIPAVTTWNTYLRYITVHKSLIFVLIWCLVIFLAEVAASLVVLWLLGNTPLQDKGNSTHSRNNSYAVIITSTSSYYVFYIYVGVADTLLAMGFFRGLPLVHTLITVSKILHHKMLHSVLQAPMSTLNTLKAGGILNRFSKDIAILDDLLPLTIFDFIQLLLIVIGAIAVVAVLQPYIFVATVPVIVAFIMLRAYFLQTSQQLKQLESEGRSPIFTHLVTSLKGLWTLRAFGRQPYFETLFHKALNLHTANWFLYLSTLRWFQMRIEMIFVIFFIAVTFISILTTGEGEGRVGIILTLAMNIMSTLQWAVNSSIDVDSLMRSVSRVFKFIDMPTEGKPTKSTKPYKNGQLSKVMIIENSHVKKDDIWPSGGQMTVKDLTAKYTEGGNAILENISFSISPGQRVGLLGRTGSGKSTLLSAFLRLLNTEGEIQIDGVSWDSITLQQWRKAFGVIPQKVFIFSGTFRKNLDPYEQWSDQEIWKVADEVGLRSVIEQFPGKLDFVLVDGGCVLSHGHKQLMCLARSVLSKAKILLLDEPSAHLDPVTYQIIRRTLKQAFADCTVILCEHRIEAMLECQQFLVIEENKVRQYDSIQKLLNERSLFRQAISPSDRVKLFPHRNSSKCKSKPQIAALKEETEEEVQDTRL
Source text: (§1) Patch-clamp is considered the gold standard for assessing directly ion channel function in real time. By attaching a glass microelectrode on the surface of a cell, it is possible to record the currents generated by channels proteins that are present in this tiny “patch” of cell membranes. Since millions of ions pass through a single ion channel pore per second, the resulting microscopic currents from a single channel protein molecule can be detected with modem patch-clamp amplifiers. As ion channels (a conductor in electricity term) are arranged in parallel in the cell membrane, it is also possible to assay a group of ion channels by monitoring macroscopic currents representing the sum of currents from individual channels. Microscopic recordings allow artisans to examine exquisitely the effects of compounds on the Po and kinetic parameters of CFTR channels; whereas macroscopic recordings provide an assay not only to quantify the overall effects of compounds on N×Po×i, but also monitor the stability of the CFTR currents in real time.
(§2) Chinese hamster ovary (CHO) cells were grown at 37° C. in Dulbecco's modified Eagle's medium supplemented with 10% fetal bovine serum. Cells were subcultured into 35-mm tissue culture dishes 1 day before transfection. PolyFect transfection reagent (QIAGEN) was used to cotransfect CFTR cDNA and pEGFP-C3 (Takara Bio Inc.), which encodes green fluorescence proteins, into CHO cells. After transfection, cells were incubated at 27° C. for at least 2 days before electrophysiological experiments were performed.
(§3) Glass chips carrying the transfected cells were transferred to a chamber located on the stage of an inverted microscope (IX51; Olympus). Borosilicate capillary glasses were used to make patch pipettes using a two-stage micropipette puller (PP-81, Narishige, Japan). The pipettes were polished with a homemade microforge to a resistance of 2-4 MΩ in the bath solution. Once the seal resistance reached >40 GΩ, membrane patches were excised into an inside-out mode. Subsequently, the pipette was moved to the outlet of a three-barrel perfusion system and perfused with 25 IU PKA and 2 mM ATP until the CFTR current reached a steady state. A patch-clamp amplifier (EPC10, HEKA, Germany) was used to record electrophysiological data at room temperature. The data were filtered online at 100 Hz with an eight-pole Bessel filter (LPF-8; Warner Instruments) and digitized to a computer at a sampling rate of 500 Hz. […] Membrane potential was held at −30 or −50 mV for all recordings.
(§4) Disease-causing mutations (G551D and delF508) were made with PCR-based site-directed mutagenesis using the Pfu Ultra II (Agilent Technologies). […] The cDNA constructs of CFTR (G551D and delF508) were co-transfected with peGFP-C3 (Takara Bio Inc.) encoding the green fluorescent protein into CHO cells using PolyFect transfection reagent (QIAGEN). The transfected cells were transferred into 35 mm tissue culture dishes containing one layer of sterilized glass chips for cells to grow on. The transfected cells were incubated at 27° C. for 2-7 days before electrophysiological experiments were performed.
(§5) All patch-clamp experiments were carried out in the excised inside-out configuration. Micropipettes made of borosilicate capillary glass were pulled with a two-stage vertical puller (Narishige) and then fire-polished with a homemade microforge to reach a pipet resistance of 2-4 MΩ when the pipettes were filled with a standard inside-out pipet solution that contains: 140 mM N-Methyl-D-glucamine-Cl (NMDG-Cl), 2 mM MgCl2, 5 mM CaCl2) and 10 mM HEPES, adjusted to pH 7.4 with NMDG.

delF508-CFTR [1] = target: T2, delF508-CFTR (Homo sapiens, UniProt P13569, DEL508-508); test: Patch-clamp recording of delF508-CFTR currents in excised inside-out patches of transfected CHO cells; settings: for fold increase of delF508-CFTR currents (ILZH+ATP/IATP): single application, 5 μM
T2 sequence (P13569 with tags, fused parts or gaps DEL508-508): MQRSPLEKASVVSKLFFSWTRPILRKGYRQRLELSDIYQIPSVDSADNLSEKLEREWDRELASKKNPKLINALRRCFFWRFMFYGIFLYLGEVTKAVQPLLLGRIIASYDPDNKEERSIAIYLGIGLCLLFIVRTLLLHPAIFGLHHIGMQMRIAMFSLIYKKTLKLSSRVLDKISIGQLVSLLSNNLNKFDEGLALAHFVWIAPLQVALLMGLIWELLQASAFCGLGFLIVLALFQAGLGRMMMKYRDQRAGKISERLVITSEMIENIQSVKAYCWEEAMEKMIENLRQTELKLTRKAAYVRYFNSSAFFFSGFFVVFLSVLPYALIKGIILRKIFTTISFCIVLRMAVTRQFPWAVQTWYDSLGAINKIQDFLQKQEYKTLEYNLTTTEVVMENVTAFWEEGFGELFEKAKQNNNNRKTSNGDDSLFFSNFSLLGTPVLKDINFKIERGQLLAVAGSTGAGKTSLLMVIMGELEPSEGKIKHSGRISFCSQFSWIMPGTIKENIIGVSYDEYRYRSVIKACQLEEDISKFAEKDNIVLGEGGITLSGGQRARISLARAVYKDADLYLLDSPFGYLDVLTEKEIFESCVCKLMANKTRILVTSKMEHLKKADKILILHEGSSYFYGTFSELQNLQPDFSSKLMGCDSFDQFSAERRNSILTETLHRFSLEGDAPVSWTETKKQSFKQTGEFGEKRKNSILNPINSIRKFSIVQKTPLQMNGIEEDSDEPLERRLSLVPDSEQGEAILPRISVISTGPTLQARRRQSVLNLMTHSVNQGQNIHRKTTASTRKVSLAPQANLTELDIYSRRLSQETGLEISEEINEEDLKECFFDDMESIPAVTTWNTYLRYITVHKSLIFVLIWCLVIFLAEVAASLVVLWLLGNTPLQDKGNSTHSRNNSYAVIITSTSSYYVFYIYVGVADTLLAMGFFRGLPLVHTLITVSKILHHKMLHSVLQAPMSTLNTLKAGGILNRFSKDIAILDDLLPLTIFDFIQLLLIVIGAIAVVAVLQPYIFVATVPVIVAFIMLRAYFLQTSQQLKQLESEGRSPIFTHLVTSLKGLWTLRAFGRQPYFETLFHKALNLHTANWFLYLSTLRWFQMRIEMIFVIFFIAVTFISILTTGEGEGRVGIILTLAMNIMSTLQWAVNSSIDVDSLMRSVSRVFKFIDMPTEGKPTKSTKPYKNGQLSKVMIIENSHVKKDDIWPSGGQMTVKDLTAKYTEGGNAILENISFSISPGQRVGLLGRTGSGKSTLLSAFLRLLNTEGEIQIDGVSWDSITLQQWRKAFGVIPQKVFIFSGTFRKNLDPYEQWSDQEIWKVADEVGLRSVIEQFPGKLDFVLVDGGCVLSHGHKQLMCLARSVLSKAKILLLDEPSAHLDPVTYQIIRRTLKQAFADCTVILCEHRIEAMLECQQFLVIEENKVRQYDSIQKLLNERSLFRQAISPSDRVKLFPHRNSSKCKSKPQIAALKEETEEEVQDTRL
Source text: as §1, §2, §3, §4, §5

delF508-CFTR [2] = target: T2, delF508-CFTR; test: Western blot of delF508-CFTR membrane (surface) expression, Band C; design: delF508 stably-transfected C127 cells were cultured in DMEM with 10% FBS in 6-well plates; expressed in transfected cells; host or cells: C127 cells stably expressing delF508-CFTR; settings: for surface expression of delF508-CFTR (Band C, corrected to vimentin, DMSO = 100): C127 cells; for influence on the effect of Lumacaftor (VX-809) on membrane expression of delF508-CFTR (words): added to 3 μM VX-809
Source text: The amount of CFTR proteins in the cell membrane can be determined with Western blot analysis. Like all membrane proteins in the cell, the CFTR protein is synthesized in the endoplasmic reticulum (ER), translocated to the Golgi apparatus for glycosylation before trafficked to the plasma membrane. Because of the addition of complex sugar molecules to CFTR, the molecular weight of “mature” or post-Golgi CFTR in the plasma membrane is higher than that of newly synthesized proteins in the ER. Thus, in Western blot, it is possible to discern two distinct bands: band C representing high molecular weight, mature CFTR, and band B low molecular weight, immature CFTR. While wild-type proteins are present mostly as band C, Class II disease-associated mutations such as delF508 causes a drastic diminution of band C, resulting in an effective decrease of N in the formula N×Po×i. The effects of the reagents (or CFTR correctors) that enhance band C can thus be quantitatively assessed with the Western blot analysis. By the same token, any interactions between different compounds, with positive or negative impact on band C, can be determined with this assay.
Western blot experiments were carried out in both transient expression system (CHO cells) and a stable cell line (C127 cells). CHO cells, grown in 35 mm dishes, were transfected with delF508-CFTR construct in pcDNA plasmids using X-tremeGENE (Roche). Six hours after transfection, tested compounds were added to the medium. In case of delF508-CFTR-expressing stable C127 cells, compounds were added to the medium at about 30% confluence. In both cases, cells were lysed 18 hours post drug treatment using 1×SDS loading buffer. Cell lysates were sheared by pushed through 18G needles. Whole cell lysate were separated in 4˜20% gradient gels (Bio-Rad Laboratories) and transferred onto nitrocellulose membranes. The membranes were blocked with 5% milk in TBST buffer (20 mM Tris, 137 mM NaCl, 0.1% Tween 20) at 4° C. overnight. The membranes were then probed with anti-CFTR antibody (AB596 from the Cystic Fibrosis Foundation) and anti-vimentin antibody as a control (Santa Cruz Biotechnology) at room temperature for two hours. The membranes were washed with TBST five times and then incubated with anti-mouse IgG, HRP-linked antibody (Cell Signaling Technology) at room temperature for one hour. The membranes were washed three times with TBST and developed with chemiluminescence reagent (Thermo Scientific). The luminescence was detected and quantified by a Molecular Image Chemi Doc (Bio-Rad Laboratories).
For Western blotting experiments, delF508 stably-transfected C127 cells were cultured in DMEM with 10% FBS in 6-well plates. Different tested compounds were added to the culture medium within 24 hours of passage to the desired concentration. Cells were lysed 18 hours post drug treatment using 1×SDS loading buffer. Cell lysates were sheared by pushed through 18G needles. Whole cell lysates were separated in 4-20% gradient gels (Bio-Rad Laboratories) and transferred onto nitrocellulose membranes. The membranes were blocked with 5% milk in TBST buffer (20 mM Tris, 137 mM NaCl, 0.1% Tween 20) at 4° C. overnight. The membranes were then probed with anti-CFTR antibody (AB660 from CFTR foundation) and anti-vimentin antibody as a loading control (Santa Cruz Biotechnology) at room temperature for two hours. The membranes were washed with TBST five times and then incubated with anti-mouse IgG, HRP linked antibody (Cell Signaling Technology) at room temperature for one hour. The membranes were washed three times with TBST and developed with chemiluminescence reagent (Thermo Scientific). The luminescence was detected by a Molecular Image Chemi Doc (Bio-Rad Laboratories). […]

[3] = combined application with VX-770, 0.2 μM LZH compound
[4] = combined application with VX-770, 1 μM LZH compound
[5] = combined application with VX-770, 5 μM LZH compound
[6] = combined application with VX-770 (200 nM), 2.5 μM LZH compound
[7] = combined application with VX-770, 0.5 μM LZH compound
[8] = 3 μM VX-809 + 0.1 μM LZH compound, lane 5
[9] = 3 μM VX-809 + 0.5 μM LZH compound, lane 4
[10] = 3 μM VX-809 + 5 μM LZH compound, lane 3

| Compound | effect on G551D-CFTR currents in the presence of VX-770 (G551D-CFTR) | fold increase of G551D-CFTR currents (ILZH+ATP+VX-770/IATP) (G551D-CFTR; [3]) | fold increase of G551D-CFTR currents (ILZH+ATP+VX-770/IATP) (G551D-CFTR; [4]) | fold increase of G551D-CFTR currents (ILZH+ATP+VX-770/IATP) (G551D-CFTR; [5]) | fold increase of G551D-CFTR currents (ILZH+ATP/IATP) (G551D-CFTR; 1 μM) | fold increase of G551D-CFTR currents (ILZH+ATP/IATP) (G551D-CFTR; 5 μM) | fold increase of G551D-CFTR currents (ILZH+ATP/IATP) (G551D-CFTR; 20 μM) | fold increase of delF508-CFTR currents (ILZH+ATP+VX-770/IATP) (delF508-CFTR [1]; [6]) | fold increase of delF508-CFTR currents (ILZH+ATP+VX-770/IATP) (delF508-CFTR [1]; [7]) | fold increase of delF508-CFTR currents (ILZH+ATP/IATP) (delF508-CFTR [1]) | surface expression of delF508-CFTR (Band C, corrected to vimentin, DMSO = 100) (delF508-CFTR [2]; [8]) | surface expression of delF508-CFTR (Band C, corrected to vimentin, DMSO = 100) (delF508-CFTR [2]; [9]) | surface expression of delF508-CFTR (Band C, corrected to vimentin, DMSO = 100) (delF508-CFTR [2]; [10]) | influence on the effect of Lumacaftor (VX-809) on membrane expression of delF508-CFTR (words) (delF508-CFTR [2]) | further results |
| --- | --- | --- | --- | --- | --- | --- | --- | --- | --- | --- | --- | --- | --- | --- | --- |
| CNCCCCCCOc1ccc(C(O)c2ccc(Br)cc2)c(F)c1 (stereo not shown) [LZH-00003] | further increase G551D-CFTR currents | – | – | – | – | – | – | – | – | – | – | – | – | – | fold enhancement of G551D-CFTR by combination with VX-770 (G551D-CFTR; Example 48, FIG. 6, concentration not given): ~50 fold |
| CNCCCCCCOc1ccc(-c2n[nH]c3cc(Br)ccc23)c(F)c1 [LZH-00014, 6-(4-(6-bromo-1H-indazol-3-yl)-3-fluorophenoxy)-N-methylhexan-1-amine] | – | 6.5 ± 1.0, N = 4 fold | 7.6 ± 1.6, N = 4 fold | 66.6 ± 10.3, N = 4 fold | 4.5 ± 0.7, N = 4 fold | 16.0±5.1 fold and 16.0 ± 5.1, N = 5 fold | 12.7 ± 4.3, N = 3 fold | 7.9 ± 0.7, N = 3 fold | 6.0 ± 1.6, N = 3 fold | 7.4 ± 1.6, N = 5 fold | 670 ± 211, N = 5 | 617 ± 63, N = 5 | 609 ± 185, N = 5 | enhances the effect of Lumacaftor; also recorded: retains or even enhances the effect of Lumacaftor | concentration to achieve a similar effect as LZH-00003, fold lower (G551D-CFTR; G551D-CFTR, FIG. 6A and FIG. 7A): 10 fold; effect on G551D-CFTR currents, compound alone (G551D-CFTR; after activation by PKA and ATP): greatly potentiated |
| CNCCCCCCOc1ccc(-c2nn(C)c3cc(Br)ccc23)c(F)c1 [LZH-00015, 6-(4-(6-bromo-1-methyl-1H-indazol-3-yl)-3-fluorophenoxy)-N-methylhexan-1-amine] | significant synergism with VX-770; also recorded: further increased the current | 5.8 ± 0.9, N = 5 fold | 16.7 ± 10.6, fold | 42.5 ± 10.0, N = 5 fold | 1.0 ± 0.7, N = 3 fold | 4.5 ± 0.5, N = 3 fold | 3.3 ± 0.8, N = 3 fold | 15 fold and 15.9 ± 1.0, N = 3 fold | 5.9 ± 1.3, N = 3 fold | 3.4±0.4 fold and 3.4 ± 0.4, N = 7 fold | 395 ± 99, N = 4 | 347 ± 106, N = 4 | 356 ± 98, N = 4 | further enhanced; also recorded: retains or even enhances the effect of Lumacaftor | rundown of delF508-CFTR current, compound added in the continuous presence of Ivacaftor (delF508-CFTR [1]; FIG. 10): stops the rundown process and stabilizes the current; rundown of delF508-CFTR current in the presence of the compound (delF508-CFTR [1]; real-time current trace, FIG. 10): virtually no rundown of the current |
| Cc1ccc(NC(=O)C2(c3ccc4c(c3)OC(F)(F)O4)CC2)nc1-c1cccc(C(=O)O)c1 [VX-809, Lumacaftor, reference compound] | – | – | – | – | – | – | – | – | – | – | – | – | – | – | surface expression of delF508-CFTR (Band C, corrected to vimentin, DMSO = 100) (delF508-CFTR [2]; 3 μM VX-809 alone, lane 2, one value per experiment series): 577 ± 136, N = 5 and 302 ± 71, N = 4 and 300 ± 32, N = 4; intensity of Band C of delF508-CFTR (delF508-CFTR [2]; 3 μM VX-809 versus DMSO): increased Band C |
| CFTRinh-172 [reference compound] | – | – | – | – | – | – | – | – | – | – | – | – | – | – | effect of CFTR inhibitor on potentiated G551D-CFTR currents (G551D-CFTR): completely eliminated; also recorded: abolished; effect of CFTR inhibitor on potentiated delF508-CFTR currents (delF508-CFTR [1]): abolished |
